Reference: ChEMBL document CHEMBL1201862, “PubChem BioAssay data set” (2004)
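Briefly, cells in 96-well plates were exposed to five compound concentrations for 48 h, and endpoints were estimated by linear interpolation. GI50 is the concentration that inhibits growth by half.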 Active and inactive are the calls of the source. Cut-off read from the data, not from the text of the source: active = GI50 up to about 1.1 µM and inactive = higher.

Legend:
Assay in all cases: NCI anticancer screen, dose series, 48 h
UO-31 = system: UO-31
K562 = system: K562
COLO 205 = system: COLO 205
OVCAR-8 = system: OVCAR-8
Malme-3M = system: Malme-3M
A549 = system: A549
RXF 393 = system: RXF 393
NCI-H522 = system: NCI-H522
RPMI-8226 = system: RPMI-8226
M19-MEL = system: M19-MEL
SK-MEL-5 = system: SK-MEL-5
U-251 = system: U-251
SK-MEL-28 = system: SK-MEL-28
HCT-116 = system: HCT-116
TK-10 = system: TK-10
LOX IMVI = system: LOX IMVI
KM12 = system: KM12
M14 = system: M14
MCF7 = system: MCF7
T47D = system: T47D

SMILES	GI50 (UO-31)	GI50 (K562)	GI50 (COLO 205)	GI50 (OVCAR-8)	GI50 (Malme-3M)	GI50 (A549)	GI50 (RXF 393)	GI50 (NCI-H522)	GI50 (RPMI-8226)	GI50 (M19-MEL)	GI50 (SK-MEL-5)	GI50 (U-251)	GI50 (SK-MEL-28)	GI50 (HCT-116)	GI50 (TK-10)	GI50 (LOX IMVI)	GI50 (KM12)	GI50 (M14)	GI50 (MCF7)	GI50 (T47D)
CC(C)(C)C(=O)C(c1ccc(-c2cscn2)cc1)c1ccc(-c2cscn2)cc1	44.4 µM (inactive)	> 92.9 µM (inactive)	> 89.7 µM (inactive)	16.7 µM (inactive)	> 56.4 µM (inactive)	29.6 µM (inactive)	18.8 µM (inactive)	22.8 µM (inactive)	32.1 µM (inactive)	65 µM (inactive)	38.1 µM (inactive)	20.7 µM (inactive)	46.3 µM (inactive)	44 µM (inactive)	31.9 µM (inactive)	> 69.2 µM (inactive)	> 83.9 µM (inactive)	97.5 µM (inactive)	–	–
COc1cccc2c1C(CO)N1C(C#N)C3CC(C(=O)O)C(C1C2)N3C (stereo not given)	1.59 µM (inactive)	1.63 µM (inactive)	1.26 µM (inactive)	1.68 µM (inactive)	1.92 µM (inactive)	7.52 µM (inactive)	1.27 µM (inactive)	0.0615 µM (active)	1.15 µM (inactive)	3.54 µM (inactive)	1.69 µM (inactive)	1.52 µM (inactive)	1.56 µM (inactive)	1.69 µM (inactive)	2.11 µM (inactive)	1.95 µM (inactive)	1.98 µM (inactive)	4.37 µM (inactive)	0.272 µM (active)	0.324 µM (active)
COc1ccc(O)c2c(=O)ccccc12	78.2 µM (inactive)	> 100 µM (inactive)	> 100 µM (inactive)	> 100 µM (inactive)	> 100 µM (inactive)	> 100 µM (inactive)	4.79 µM (inactive)	28.8 µM (inactive)	> 100 µM (inactive)	> 100 µM (inactive)	> 100 µM (inactive)	> 100 µM (inactive)	> 100 µM (inactive)	> 100 µM (inactive)	6.32 µM (inactive)	> 100 µM (inactive)	> 100 µM (inactive)	> 100 µM (inactive)	–	–
c1ccc(CN2COc3c(ccc4c5c(ccc34)CN(Cc3ccccc3)CO5)C2)cc1	> 100 µM (inactive)	> 100 µM (inactive)	> 100 µM (inactive)	> 100 µM (inactive)	> 100 µM (inactive)	> 100 µM (inactive)	> 100 µM (inactive)	> 100 µM (inactive)	> 100 µM (inactive)	> 100 µM (inactive)	> 100 µM (inactive)	> 100 µM (inactive)	> 100 µM (inactive)	> 100 µM (inactive)	> 100 µM (inactive)	> 100 µM (inactive)	> 100 µM (inactive)	> 100 µM (inactive)	> 100 µM (inactive)	> 100 µM (inactive)
NC(=S)NNc1c([N+](=O)[O-])cnn(-c2ccccc2)c1=O	23.4 µM (inactive)	4.36 µM (inactive)	13.1 µM (inactive)	14.5 µM (inactive)	19.2 µM (inactive)	23 µM (inactive)	18.5 µM (inactive)	18.7 µM (inactive)	20.7 µM (inactive)	13.2 µM (inactive)	18.7 µM (inactive)	16.9 µM (inactive)	17 µM (inactive)	10.2 µM (inactive)	24 µM (inactive)	10.3 µM (inactive)	14.7 µM (inactive)	15 µM (inactive)	–	–
Cc1ccc(NC(=O)CC2Sc3ccccc3NC2=O)c(C)c1 (stereo not given)	13 µM (inactive)	4.01 µM (inactive)	8.55 µM (inactive)	18.5 µM (inactive)	14.7 µM (inactive)	16 µM (inactive)	14 µM (inactive)	11.4 µM (inactive)	12.8 µM (inactive)	15.3 µM (inactive)	6.97 µM (inactive)	14 µM (inactive)	20.1 µM (inactive)	10.3 µM (inactive)	20.2 µM (inactive)	19.6 µM (inactive)	4.88 µM (inactive)	12.4 µM (inactive)	–	–
COc1cc([C@@H]2c3cc4c(cc3[C@@H](NC(=O)c3cccc(F)c3)C3COC(=O)[C@@H]32)OCO4)cc(OC)c1O (stereo not given in full)	2.99 µM (inactive)	1.61 µM (inactive)	3.52 µM (inactive)	1.76 µM (inactive)	1.29 µM (inactive)	0.0327 µM (active)	4.3 µM (inactive)	1.4 µM (inactive)	0.466 µM (active)	3.22 µM (inactive)	1.14 µM (inactive)	0.109 µM (active)	2.94 µM (inactive)	1.76 µM (inactive)	3.35 µM (inactive)	0.698 µM (active)	1.76 µM (inactive)	1.26 µM (inactive)	–	–
